Data from the supplement of paper PMC8960247.
Where a name gives a salt, the structure may show the parent alone. ± gives the standard error.

How the values were obtained:
[1] = test system: 621-102 (TSC2-deficient); experiment: relative viability vs DMSO; higher = less cytotoxic; details: serum: 10% FBS, 72 h
[2] = test system: 621-103 (TSC2-rescued); experiment: as above; details: serum: 10% FBS, 72 h
[3] = test system: 621-102 (TSC2-deficient); experiment: relative viability vs DMSO (fraction); higher = less cytotoxic; details: serum: 0.1% FBS, 72 h
[4] = test system: UMB1949 (TSC2-deficient); experiment: as above; details: serum: 0.1% FBS, 72 h;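 further: renal angiomyolipoma cell lines screened in 384-well plates, viability normalized per plate to DMSO-treated cells, each plate carrying 50 nM rapamycin and 1 µM staurosporine controls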

Row | SMILES | relative viability ([1]; 0.0001 µM) [%] | relative viability ([1]; 0.001 µM) [%] | relative viability ([1]; 0.01 µM) [%] | relative viability ([1]; 0.1 µM) [%] | relative viability ([1]; 1 µM) [%] | relative viability ([1]; 10 µM) [%] | relative viability ([2]; 0.0001 µM) [%] | relative viability ([2]; 0.001 µM) [%] | relative viability ([2]; 0.01 µM) [%] | relative viability ([2]; 0.1 µM) [%] | relative viability ([2]; 1 µM) [%] | relative viability ([2]; 10 µM) [%] | relative viability ([3]; 0.0128 nM) | relative viability ([3]; 0.064 nM) | relative viability ([3]; 0.32 nM) | relative viability ([3]; 1.6 nM) | relative viability ([3]; 8 nM) | relative viability ([3]; 40 nM) | relative viability ([3]; 200 nM) | relative viability ([3]; 1000 nM) | relative viability ([3]; 5000 nM) | relative viability ([4]; 0.0128 nM) | relative viability ([4]; 0.064 nM) | relative viability ([4]; 0.32 nM) | relative viability ([4]; 1.6 nM) | relative viability ([4]; 8 nM) | relative viability ([4]; 40 nM) | relative viability ([4]; 200 nM) | relative viability ([4]; 1000 nM) | relative viability ([4]; 5000 nM)
1 | Nc1ncn([C@H]2C[C@H](O)[C@@H](CO)O2)c(=O)n1 [Decitabine] | 104 ± 11 | 94.3 ± 5.7 | 98.29 ± 0.53 | 98.5 ± 1.5 | 80.2 ± 4.8 | 93.1 ± 7.1 | 112 ± 7.6 | 102.5 ± 0.51 | 95.65 ± 0.75 | 95.7 ± 3.1 | 85.5 ± 6.7 | 83.8 ± 3.4 | 1 | 0.906 | 1 | 0.888 | 0.803 | 0.544 | 0.312 | 0.104 | 0.0392 | 1.08 | 1.04 | 0.99 | 0.967 | 1.08 | 0.973 | 0.635 | 0.277 | 0.155
2 | CO[C@H]1C[C@@H]2CC[C@@H](C)[C@@](O)(O2)C(=O)C(=O)N2CCCC[C@H]2C(=O)O[C@H]([C@H](C)C[C@@H]2CC[C@@H](OP(C)(C)=O)[C@H](OC)C2)CC(=O)[C@H](C)/C=C(\C)[C@@H](O)[C@@H](OC)C(=O)[C@H](C)C[C@H](C)/C=C/C=C/C=C/1C [Deforolimus(MK-8669)] | 47.2 ± 1.4 | 56.5 ± 2.7 | 56.6 ± 1.4 | 51.2 ± 2 | 47.9 ± 3 | 48.8 ± 5.1 | 64.9 ± 4.2 | 64.215 ± 0.057 | 68.4 ± 2.7 | 69.1 ± 1.9 | 64.44 ± 0.59 | 67.4 ± 1.6 | 0.609 | 0.552 | 0.523 | 0.466 | 0.466 | 0.493 | 0.373 | 0.281 | 0.284 | 0.988 | 0.964 | 0.973 | 0.932 | 0.899 | 0.802 | 0.693 | 0.381 | 0.459
3 | C=C1C[C@@H]2[C@H](CC[C@]3(C)C(=O)CC[C@@H]23)[C@@]2(C)C=CC(=O)C=C12 [Exemestane] | 130 ± 2.1 | 122 ± 5.8 | 119 ± 1.2 | 114 ± 3.2 | 113 ± 5.9 | 105 ± 3.4 | 100.1 ± 0.24 | 101 ± 2.2 | 104 ± 1.6 | 100 ± 1.2 | 97.5 ± 1.4 | 92.3 ± 2.7 | 1.16 | 1.08 | 1.02 | 0.948 | 1.06 | 1.11 | 1.12 | 0.94 | 0.891 | 0.936 | 0.98 | 0.996 | 1.01 | 1.08 | 1.02 | 0.927 | 0.859 | 0.773
4 | Nc1ccn([C@@H]2O[C@H](CO)[C@@H](O)C2(F)F)c(=O)n1 [Gemcitabine Hydrochloride] | 108 ± 11 | 93 ± 1.5 | 52.67 ± 0.069 | 52.6 ± 0.69 | 44.7 ± 3.6 | 32.9 ± 0.75 | 103 ± 1.8 | 95.2 ± 9.7 | 51.9 ± 0.63 | 50 ± 2.1 | 41.866 ± 0.0075 | 28.5 ± 1.5 | 1.07 | 0.96 | 0.953 | 0.0927 | 0.0285 | 0.023 | 0.0148 | 0.008 | 0.00219 | 1.06 | 1.01 | 1.02 | 0.0319 | 0.014 | 0.00861 | 0.007 | 0.00362 | 0.00263
5 | COc1ccc(S(=O)(=O)N(C(C)=O)c2ccccc2/C=C/c2cc[n+]([O-])cc2)cc1 [HMN-214] | 112 ± 4 | 110 ± 1.5 | 96.8 ± 5.4 | 92.7 ± 1.4 | 40.4 ± 1.6 | 37 ± 2.7 | 98.78 ± 0.21 | 99.62 ± 0.55 | 100.9 ± 0.31 | 97.91 ± 0.21 | 45.5 ± 1.1 | 39.5 ± 0.96 | 1.16 | 1.09 | 1.35 | 1.08 | 1.01 | 1.02 | 0.0913 | 0.0251 | 0.03 | 1.14 | 1.08 | 1.09 | 1.17 | 1.09 | 0.985 | 0.0414 | 0.0021 | 0.00207
6 | O=C1Nc2ccccc2/C1=C1/Nc2ccccc2C1=O [Indirubin] | 97.2 ± 1.8 | 92.9 ± 2 | 91.53 ± 0.38 | 87.8 ± 2.7 | 92.2 ± 1.6 | 89.5 ± 2.1 | 86.1 ± 1.6 | 82.2 ± 3.9 | 83.7 ± 2.7 | 81.9 ± 4 | 79.1 ± 3.3 | 64 ± 2.4 | 1.08 | 0.927 | 1.06 | 0.906 | 0.922 | 0.996 | 0.841 | 0.652 | 0.833 | 0.983 | 1.03 | 1.02 | 0.972 | 0.941 | 0.964 | 0.87 | 0.811 | 0.749
7 | O=C(Cc1ccc(-c2ccc(OCCN3CCOCC3)cc2)cn1)NCc1ccccc1 [KX2-391] | 90.4 ± 1.4 | 98.1 ± 14 | 70 ± 2.2 | 47.7 ± 0.7 | 35.2 ± 2.1 | 37.3 ± 0.46 | 101 ± 3.5 | 96.4 ± 5.7 | 58.7 ± 3.5 | 50.8 ± 1 | 33.05 ± 0.28 | 34.1 ± 1.5 | 1.18 | 0.965 | 1.06 | 0.813 | 0.205 | 0.0932 | 0.069 | 0.0401 | 0.0343 | 1.23 | 1.1 | 1.12 | 1.01 | 0.0594 | 0.00501 | 0.00135 | 0.00316 | 0.00418
8 | O=C(/C=C/c1ccc(CN(CCO)CCc2c[nH]c3ccccc23)cc1)NO [LAQ824] | 92.2 ± 3.3 | 87.2 ± 0.88 | 83.3 ± 3.2 | 54.8 ± 0.8 | 31.7 ± 1.1 | 16.2 ± 0.46 | 94.4 ± 1.2 | 94.1 ± 1.4 | 67.9 ± 1.9 | 21.1 ± 0.62 | 2.61 ± 0.065 | 1.459 ± 0.0077 | 1.04 | 0.934 | 0.921 | 0.89 | 0.628 | 0.173 | 0.0545 | 0.00134 | 0.000846 | 1.01 | 0.942 | 0.887 | 0.67 | 0.0147 | 0.00199 | 0.000488 | 0.000621 | 0.000364
9 | CC(C)C[C@H](NC(=O)CNC(=O)c1cc(Cl)ccc1Cl)B(O)O [MLN2238] | 113.5 ± 0.41 | 107.81 ± 0.071 | 109 ± 2.2 | 33.7 ± 7.2 | 4.42 ± 0.32 | 1.79 ± 0.047 | 100.04 ± 0.065 | 102.4 ± 0.21 | 103 ± 0.3 | 6.24 ± 0.3 | 1.63 ± 0.11 | 0.879 ± 0.059 | 1.04 | 1.1 | 0.991 | 1.15 | 0.999 | 0.243 | 0.0069 | 0.000706 | 0.00111 | 0.999 | 1.11 | 1.04 | 1.06 | 0.886 | 0.00829 | 0.00329 | 0.000634 | 0.000752
